Numbering of substitutions follows the chain as printed.
Key:
[1] = tested on: rats with spacial recognition disorder caused by repeated cerebral ischemia; test: Maze radiated in 8 directions after repeated cerebral ischemia (Example 9); format: in vivo; settings: 40 mg/kg i.p. twice a day for 6 days
Method: Wister albino male rats (weight: 250 to 280 g) were used, and training of a task of a maze which was radiated in 8 directions was conducted once a day to make the rats acquire spacial recognition. The rats which had acquired spacial recognition were subjected to cauterization of vertebral arteries and operation of peeling common carotid arteries according to the method of Pulsinelli, Brierly, et al. (Stroke, vol. 10, p. 267, 1979). […] The ischemia treatment was carried out by repeating ischemia twice, i.e., ligating common carotid arteries for 10 minutes by using clips without anesthesia and further ligating them for 10 minutes after 1 hour from restarting of blood flow. Retention trial was carried out one week after the ischemia treatment, and the results were represented by the number of correct choices among first 8 choices, whether all of 8 baits were taken or not, or the number of errors within an observation period a maximum of which was 10 minutes. Further, a pharmaceutical effect was evaluated by 3 ranks, i.e., remarkably effective (showing that the number of correct choices is 7 or more and the number of errors is 1 or less), effective (showing that the number of correct choices is 7 or more and the number of errors is 2 or 3) and ineffective (showing that the number of errors is 4 or more), and represented as an improvement rate thereof.
In the above experiment, examined was influence of continuous administration of 40 mg/kg of PDMP (i.p.) twice a day for 6 days started after 24 hours from the ischemia treatment, which was exerted on the spacial recognition disorder one week after the repeated cerebral ischemia, in the task of the maze which was radiated in 8 directions using the rats.

GSL = settings: J. Lipid. Res., vol. 28, pp. 565-571, 1987; cited from earlier work
[2] = target: T1, glucosylceramide biosynthesizing enzyme (Mus musculus, UniProt O88693); settings: J. Lipid. Res., vol. 28, pp. 565-571, 1987; cited from earlier work
T1 sequence (O88693 1-394): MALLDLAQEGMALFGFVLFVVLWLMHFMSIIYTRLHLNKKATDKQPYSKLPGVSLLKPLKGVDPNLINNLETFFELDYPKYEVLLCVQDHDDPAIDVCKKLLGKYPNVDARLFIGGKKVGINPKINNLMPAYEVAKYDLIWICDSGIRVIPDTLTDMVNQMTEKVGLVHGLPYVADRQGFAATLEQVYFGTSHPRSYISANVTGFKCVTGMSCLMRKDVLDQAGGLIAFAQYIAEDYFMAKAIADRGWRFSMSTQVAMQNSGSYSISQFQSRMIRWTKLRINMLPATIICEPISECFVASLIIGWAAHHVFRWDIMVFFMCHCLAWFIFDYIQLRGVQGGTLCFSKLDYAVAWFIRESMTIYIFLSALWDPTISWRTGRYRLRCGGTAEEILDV

GD3 synthase = test: Enzyme activity in treated cerebral cortex culture: GD3 synthase; format: cell-based, rat; settings: culture treated with 15 μM for 40 hours
Method: (§1) After the mixture was cultured for 40 hours, the resulting culture was harvested and pulverized in a homogenized buffer (50 mM Hepes, 0.32M sucrose) by using a chip type sonicator to prepare an enzyme source.
GM3 as an acceptor substrate was reacted with 30 mM CMP-^14 C sialic acid (2.88×10^6 cpm) as a donor substrate. After the mixture containing a reaction product was developed by a reverse phase thin layer plate, a portion corresponding to the reaction product was scratched off, and its radioactivity was counted.

[3] = tested on: acyl-CoA: sphingosine N-acyltransferase; test: Enzyme activity in treated cerebral cortex culture: acyl-CoA: sphingosine N-acyltransferase; format: cell-based, rat; settings: culture treated with 15 μM for 40 hours
Method: as §1
0.25 mM sphingosine and 0.45 mM ^14 C palmitoyl CoA (8.3×10^5cpm) were reacted in the presence of ATP (adenosine 5'-triphosphate). After ceramide which was a reaction product was subjected to solvent extraction, the extract was concentrated and evaporated to dryness, and its radioactivity was counted.

GM3 synthase = test: Enzyme activity in treated cerebral cortex culture: GM3 synthase; format: cell-based, rat; settings: culture treated with 15 μM for 40 hours
Method: as §1
After the mixture containing a reaction product was developed by a reverse phase thin layer plate, a portion corresponding to the reaction product was scratched off, and its radioactivity was counted.

neurites = settings: J. Biochem., vol. 110, pp. 96-103, 1991; cited from earlier work
[4] = target: T2, GlcCer (glucosylceramide) synthase (Rattus norvegicus, UniProt Q9R0E0); test: Enzyme activity in treated cerebral cortex culture: GlcCer synthase; format: cell-based; settings: culture treated with 15 μM for 40 hours
T2 construct: primary culture of cerebral cortex tissue specimens of Wister albino rats; endogenous in cells; host or cells: primary culture of rat (Wistar) cerebral cortex, sonicated after 40 h with compound
T2 sequence (Q9R0E0 1-394): T1 sequence (O88693 1-394) with D96E, K164R, R249K, T377A
Method: as §1
After ^3 H-GlcCer which was a reaction product was extracted with t-butyl methyl ether, the extract was concentrated and evaporated to dryness, and its radioactivity was measured.

[5] = tested on: primary cultured rat cerebral neurocytes; test: Ganglioside content (ganglioside-binding sialic acid) of primary cultured neurocytes; format: cell-based
Method: Rat fetuses at the 18th day of pregnancy were taken out, and forebrain base portions of the fetuses were extracted aseptically and cut into small pieces by scissors. After the pieces were treated with papain (in a phosphate buffer containing 0.02% L-cysteine containing 180 U papain, 0.02% bovine serum albumin and 0.5% glucose, pH 7.4, at 37° C. for 30 minutes), they were washed with a mixed solution (DF medium) of 1:1 of a Dulbecco modified Eagle's medium and a Ham's F12 medium and suspended in a DF medium containing 5% bovine fetal serum and 5% equine serum. This neurocyte suspension was charged into a culture plate with 24 wells (Falcon, Primaria) in an amount of 1×10^6 cells/well. […] After completion of the culture, the cells in the respective wells were washed with a phosphate buffer and recovered by rubber policeman. Further, a ganglioside fraction was extracted by adding chloroform/methanol/water (1:2:0.8) and shaking the mixture for 5 minutes. […] The no addition group (control) which was defined as 100% was compared with the test groups, and the results are shown in Table 1.

[6] = tested on: rat cerebral cortex neurocytes; test: Synapse formation measured as frequency of intracellular Ca2+ fluctuation; format: cell-based; settings: FIG. 4
Excerpt: Further, as a method of measuring synapse formation relatively simply and easily, there has been developed a multipoint observation system of Ca^2+ in neurocytes using Fura-2, and it has been confirmed that the number of synapse formation is in direct proportion to frequency of intracellular Ca^2+ fluctuation in synchronization therewith (Br. J. Pharmacol., 89, 191-198, 1986; Neurosci. Lett., 78, 69-74, 1987). We investigated influences of L-threo-FDMP and D-threo-PDMP exerted on synapse formation between rat cerebral cortex neurocytes by using this method, and the results are shown below.

explants = test: Neurite-extending activity in explants (Example 6); format: cell-based; settings: 5 μM to 15 μM, cultured for 40 hours, FIG. 5
Method: 1.6×10^5 cells/well of explants were sowed in a plate with 24 wells containing a DMEM medium. […] After the mixture was cultured for 40 hours, the resulting culture was fixed and then dyed with Coomassie, and nervous fibers extended to have a length which was longer than a diameter of […] were counted.

[7] = tested on: serine palmitoyltransferase; test: Enzyme activity in treated cerebral cortex culture: serine palmitoyltransferase; format: cell-based, rat; settings: culture treated with 15 μM for 40 hours
Method: as §1
1.5 mM palmitoyl CoA (coenzyme A) and 0.1 mM ^14 C serine (8.3×10^5 cpm) were reacted in the presence of 0.5 mM pyridoxalphosphoric acid. After 3-keto-sphingosine which was a reaction product was extracted, the extract was concentrated and evaporated to dryness, and its radioactivity was counted.

[8] = tested on: LacCer (lactosylceramide) synthase; test: Enzyme activity in treated cerebral cortex culture: LacCer synthase; format: cell-based, rat; settings: culture treated with 15 μM for 40 hours
Method: as §1
GlcCer as an acceptor substrate was reacted with 0.315mM UDP (uridine diphosphate)-^3 H galactose (2.7×10^8 cpm) as a donor substrate. After the mixture containing ^3 H-LacCer which was a reaction product was developed by a silica gel thin layer plate, a portion corresponding to the reaction product was scratched off, and its radioactivity was counted.

ICR mice = test: General toxicity, continuous 10-day intraperitoneal administration; format: in vivo; settings: 100 mg/kg/day intraperitoneally for 10 days
[9] = started 24 hours after ischemia, retention trial one week after ischemia, FIG. 7

Structure (SMILES): CCCCCCCCCC(=O)NC(CN1CCOCC1)C(O)c1ccccc1 (stereo not drawn) [PDMP, 1-phenyl-2-decanoylamino-3-morpholino-1-propanol]
- number of the correct choices versus vehicle group [1, 9]: increase of the number of the correct choices
- number of the errors versus vehicle group [1, 9]: decrease of the number of the errors
- improvement rate: rats in the remarkably effective rank ([1]; 4/8 rats, FIG. 8): 50%

Structure (SMILES): CCCCCCCCCC(=O)N[C@H](CN1CCOCC1)[C@H](O)c1ccccc1 [D-threo-PDMP, 1-phenyl-2-decanoylamino-3-morpholino-1-propanol]
- intracellular content of all GSL (GSL): extremely decreases an intracellular content of all GSL
- inhibition of glucosylceramide biosynthesizing enzyme [2]: specifically inhibits a glucosylceramide biosynthesizing enzyme
- Accelerating activity when enzyme activity of control is defined as 100%: GD3 synthase (GD3 synthase): no change in the activities was observed
- Accelerating activity when enzyme activity of control is defined as 100%: Acyl-CoA: sphigosine N-acyltransferase [3]: no change in the activities was observed
- Accelerating activity when enzyme activity of control is defined as 100%: GM3 synthase (GM3 synthase): no change in the activities was observed
- extension of neurites (neurites): extension of neurites is suppressed
- Accelerating activity when enzyme activity of control is defined as 100%: GlcCer-synthase [4]: no change in the activities was observed
- ganglioside level as compared with that of the control ([5]; 20 μM, 3 days): decrease in the ganglioside level
- activity at 20 µM ([5]; Rattus norvegicus, 72 h, culture for 3 days, control defined as 100%): 63.4%
- number of synapse formation (frequency of intracellular Ca2+ fluctuation) [6]: suppressedly acted on synapse formation
- effect on neurite extension (explants): moderate suppression of neurite extension
- Accelerating activity when enzyme activity of control is defined as 100%: Serine palmitoyltransferase [7]: no change in the activities was observed
- Accelerating activity when enzyme activity of control is defined as 100%: LacCer synthase [8]: no change in the activities was observed

Structure (SMILES): CCCCCCCCCC(=O)N[C@H](CN1CCOCC1)[C@H](O)c1ccccc1 (relative stereo) [DL-threo-PDMP, 1-phenyl-2-decanoylamino-3-morpholino-1-propanol]
- decrease in weight / decrease in neutrophile, acidocyte due to suppression of bone marrow (ICR mice; in Myrj 52): neither decrease in weight nor decrease in neutrophile, acidocyte, etc. due to suppression of bone marrow was observed
- abnormality on observation for 3 months (ICR mice; observation for 3 months): no abnormality was observed
